Data reported in patent US11679107B2 (Eisai R&D Management Co., Ltd., priority 2018, dated 2023).
Read-outs that look alike come from different tables or passages of the source.

What was measured:
[1] = test system: Ad2 variant pre-mRNAs spliced in HeLa S3 nuclear extracts; test: In vitro splicing assay (IVS), RT-qPCR of spliced product; format: biochemical; details: for IC50: geometric mean; for Ratio Ad2.1/2.2: ratio of IVS IC50 Ad2.1 to Ad2.2
Summary of the method: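 Read-out is one-step TaqMan RT-qPCR of spliced Ad2 mRNA with Ftz as reference, normalized to DMSO and fit by non-linear regression. Reactions held HeLa S3 nuclear extract, 2 ng Ad2-derived pre-mRNA and test compound, with 15 min preincubation. Splicing was started with ATP-containing activation buffer and run 90 min at 30 °C.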

[2] = biological target: T1, SF3b complexes (Homo sapiens, UniProt O75533+Q7RTV0); test: Scintillation proximity assay (SPA) with [3H]-labelled pladienolide probe; format: binding; details: SF3B1 (WT); geometric mean; read-out: SPA-ATS GMean IC50 (nM) SF3B1 (WT)
T1 construct: endogenous in cells; host or cells: Nuclear extracts; A HeLa S3 extract preparation is described for the in vitro splicing assay
Summary of the method: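 SF3b complexes captured from nuclear extracts on anti-SF3B1 antibody SPA beads; test compounds pre-incubated 30 min before 2.5 nM [3H]-pladienolide probe added, then 30 min incubation. Bound probe read by scintillation; values from non-linear regression of concentration–response curves.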

[3] = test system: NCI-H1568 cells (high MCL1); test: Cell proliferation and viability, CellTiter-Glo, 72 hours; format: cell-based; details: for GI50: geometric mean
Summary of the method: (§1)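 ATP luminescence (CellTiter-Glo) was measured 72 h after treatment with compound at 10 μM–100 pM (11 points, half-log) in 0.1% DMSO. The Panc line was grown in RPMI-1640 plus insulin and 15% FBS, the other in 10% FBS. Data were normalised to time zero and vehicle controls, where −100% is cidal and 0% static.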

[4] = test system: Panc 05.04 cells (SF3b K700E mutant); test: as above; format: cell-based; details: for GI50: geometric mean
Summary of the method: as §1

[5] = Ad2.1 pre-mRNA substrate, read-out: qPCR-IVS-ATS GMean IC50 (nM) Ad2.1
[6] = Ad2.2 pre-mRNA substrate, read-out: qPCR-IVS-ATS GMean IC50 (nM) Ad2.2
[7] = 72 h, NCIH1568.1, -100% = cidal, 0% = static, 100% = uninhibited growth
[8] = NCI-H1568, 72 h, read-out: CTGlo-ATS GMean GI50 (nM) 72 h NCIH1568.1, 72 h, NCIH1568.1
[9] = 72 h, PANC0504.1, -100% = cidal, 0% = static, 100% = uninhibited growth
[10] = Panc 05.04, 72 h, read-out: CTGlo-ATS GMean GI50 (nM) 72 h PANC0504.1, 72 h, PANC0504.1
[11] = NCI-H1568, read-out: CTGlo-ATS GMean GI50 (nM) 72 h NCIH1568.1, NCIH1568.1 cells, 72 h
[12] = NCIH1568.1 cells, 72 h, −100% cidal, 0% static, 100% maximal growth
[13] = PANC0504.1 cells, 72 h, −100% cidal, 0% static, 100% maximal growth
[14] = Panc 05.04, read-out: CTGlo-ATS GMean GI50 (nM) 72 h PANC0504.1, PANC0504.1 cells, 72 h
[15] = NCI-H1568, 72 h, read-out: CTGlo-ATS GMean GI50 (nM) 72 h NCIH1568.1, NCIH1568.1 cells, 72 h
[16] = Panc 05.04, 72 h, read-out: CTGlo-ATS GMean GI50 (nM) 72 h PANC0504.1, PANC0504.1 cells, 72 h

SMILES	IC50 [1, 5]	IC50 [1, 6]	Ratio Ad2.1/2.2 [1]	IC50 [2]	CTGlo-ATS Mean MinResponse % 72 h NCIH1568.1 [3, 7]	GI50 [3, 8]	CTGlo-ATS Mean MinResponse % 72 h PANC0504.1 [4, 9]	GI50 [4, 10]	GI50 [3, 11]	CTGlo-ATS Mean MinResponse % 72 h NCIH1568.1 [3, 12]	CTGlo-ATS Mean MinResponse % 72 h PANC0504.1 [4, 13]	GI50 [4, 14]	GI50 [3, 15]	GI50 [4, 16]
C/C(=C\c1cccc(N(C)C)c1)[C@H]1OC(=O)C[C@H](O)CC[C@H](C)[C@@H](OC(=O)N2CCN(C)CC2)/C=C/[C@@H]1C [Compound 265]	> 25000 nM	71.6 nM	349.0	5.3 nM	−9.0%	47.5 nM	25.1%	36.7 nM	–	–	–	–	–	–
C/C(=C\c1cc(F)cc(N2CCOCC2)c1)[C@H]1OC(=O)C[C@H](O)CC[C@H](C)[C@@H](OC(=O)N2CCC(N3CCCCC3)CC2)/C=C/[C@@H]1C [Compound 262, [(2S,3S,4E,6R,7S,10R)-2-[(E)-1-(3-fluoro-5-morpholin-4-ylphenyl)prop-1-en-2-yl]-10-hydroxy-3,7-dimethyl-12-oxo-1-oxacyclododec-4-en-6-yl] 4-piperidin-1-ylpiperidine-1-carboxylate]	4100 nM	51.6 nM	79.467	5.66 nM	−65.862%	41.7 nM	−91.709%	29.3 nM	–	–	–	–	–	–
C/C(=C\c1cc(F)cc(N2CCOCC2)c1)[C@H]1OC(=O)C[C@@H](O)CC[C@@](C)(O)[C@@H](OC(=O)N2CCC(N3CCCCC3)CC2)/C=C/[C@@H]1C [Compound 63]	18800 nM	52 nM	–	12.3 nM	–	–	–	–	39.3 nM	−50.769%	−96.440%	41.2 nM	–	–
C/C(=C\c1cc(F)cc(N2CCN(C(=O)C3CCOCC3)CC2)c1)[C@H]1OC(=O)C[C@H](O)CC[C@H](C)[C@@H](OC(=O)N2CCN(C)CC2)/C=C/[C@@H]1C [Compound 118]	22 nM	19.9 nM	–	3.76 nM	–	–	–	–	–	−82.113%	−79.169%	–	3 nM	4.55 nM
CNC(=O)Cn1ncc2c(F)cc(/C=C(\C)[C@H]3OC(=O)C[C@H](O)CC[C@H](C)[C@@H](OC(=O)N4CCN(C)CC4)/C=C/[C@@H]3C)cc21 [Compound 128]	3350 nM	18.1 nM	–	8.76 nM	–	–	–	–	25.7 nM	−62.651%	−96.227%	44.2 nM	–	–
C/C(=C\c1cc(F)cc(N2CCN(C(=O)CN3CCOCC3)CC2)c1)[C@H]1OC(=O)C[C@H](O)CC[C@H](C)[C@@H](OC(=O)N2CCN(C)CC2)/C=C/[C@@H]1C [Compound 119]	31 nM	21.7 nM	–	11.7 nM	–	–	–	–	8.84 nM	−81.451%	−75.344%	8.43 nM	–	–
C/C(=C\c1cc(F)cc(N2CCC[C@H]2CO)c1)[C@H]1OC(=O)C[C@H](O)CC[C@H](C)[C@@H](OC(=O)N2CCN(C)CC2)/C=C/[C@@H]1C [Compound 15]	21.6 nM	12.3 nM	–	6.33 nM	–	–	–	–	–	−74.931%	−80.816%	–	7.58 nM	6.23 nM
CN[C@@H]1CCN(c2cc(F)cc(/C=C(\C)[C@H]3OC(=O)C[C@H](O)CC[C@H](C)[C@@H](OC(=O)N4CCN(C)CC4)/C=C/[C@@H]3C)c2)C1 [Compound 45]	36.3 nM	18.3 nM	–	15.9 nM	–	–	–	–	18.9 nM	−98.435%	−92.006%	35.7 nM	–	–
C/C(=C\c1cc(F)cc(N2CC[C@@H](F)C2)c1)[C@H]1OC(=O)C[C@H](O)CC[C@H](C)[C@@H](OC(=O)N2CCN(C)CC2)/C=C/[C@@H]1C [Compound 14]	584 nM	54.7 nM	–	2.72 nM	–	–	–	–	–	−65.049%	−91.489%	–	14.1 nM	19.6 nM
C/C(=C\c1cc(F)cc(N2CCN(C(=O)CC3CC3)CC2)c1)[C@H]1OC(=O)C[C@H](O)CC[C@H](C)[C@@H](OC(=O)N2CCN(C)CC2)/C=C/[C@@H]1C [Compound 121]	25.5 nM	22 nM	–	2.99 nM	–	–	–	–	2.66 nM	−80.331%	−88.956%	3.73 nM	–	–
C/C(=C\c1cc(F)cc(N2CCOCC2)c1)[C@H]1OC(=O)C[C@H](O)CC[C@@](C)(O)[C@@H](OC(=O)N2CCN(C)CC2)/C=C/[C@@H]1C [Compound 61]	> 25000 nM	114 nM	–	13.5 nM	–	–	–	–	–	−38.996%	−93.599%	–	46.8 nM	42 nM
C/C(=C\c1cc(F)c2nnn(C3CCOCC3)c2c1)[C@H]1OC(=O)C[C@H](O)CC[C@H](C)[C@@H](OC(=O)N2CCN(C)CC2)/C=C/[C@@H]1C [Compound 140]	11.6 nM	11.8 nM	–	1.73 nM	–	–	–	–	1.25 nM	−82.434%	−80.398%	1.63 nM	–	–
C/C(=C\c1cc(F)c2cnn(C)c2c1)[C@H]1OC(=O)C[C@H](O)CC[C@H](C)[C@@H](OC(=O)N2CCN(C)CC2)/C=C/[C@@H]1C [Compound 101]	1810 nM	4.13 nM	–	1.1 nM	–	–	–	–	–	−64.073%	−94.474%	–	7.68 nM	9.78 nM
C/C(=C\c1cc(F)cc(N2CCN(C(=O)C3CC3)CC2)c1)[C@H]1OC(=O)C[C@H](O)CC[C@H](C)[C@@H](OC(=O)N2CCN(C)CC2)/C=C/[C@@H]1C [Compound 109]	26.5 nM	14 nM	–	2.85 nM	–	–	–	–	2 nM	−84.780%	−84.673%	3.55 nM	–	–
C/C(=C\c1cc(F)cc(F)c1)[C@H]1OC(=O)C[C@H](O)CC[C@H](C)[C@@H](OC(=O)N2CCN(C)CC2)/C=C/[C@@H]1C [Compound 28]	8.55 nM	61.5 nM	–	10.1 nM	–	–	–	–	–	−39.539%	−41.132%	–	89.6 nM	42.9 nM
C/C(=C\c1cc(F)cc(N2CCOCC2)c1)[C@H]1OC(=O)C[C@H](O)CC[C@H](C)[C@@H](OC(=O)N(C)C2CCCN(C)C2)/C=C/[C@@H]1C (stereo partly drawn) [Compound 37]	85.8 nM	20.2 nM	–	2.27 nM	–	–	–	–	4.75 nM	−82.247%	−86.134%	4.61 nM	–	–
C/C(=C\c1cccc(COC(=O)N2CC[C@@H](O)C2)c1)[C@H]1OC(=O)C[C@H](O)CC[C@H](C)[C@@H](OC(=O)N2CCN(C)CC2)/C=C/[C@@H]1C [Compound 254, [(2S,3S,4E,6R,7S,10R)-10-hydroxy-2-[(E)-1-[3-[[(3R)-3-hydroxypyrrolidine-1-carbonyl]oxymethyl]phenyl]prop-1-en-2-yl]-3,7-dimethyl-12-oxo-1-oxacyclododec-4-en-6-yl] 4-methylpiperazine-1-carboxylate]	22000 nM	52.2 nM	422.058	5.12 nM	−41.424%	23.7 nM	−77.065%	29 nM	–	–	–	–	–	–
C/C(=C\c1cc(F)cc(N2CC[C@H](N(C)C)C2)c1)[C@H]1OC(=O)C[C@H](O)CC[C@H](C)[C@@H](OC(=O)N2CCN(C)CC2)/C=C/[C@@H]1C [Compound 17]	46.8 nM	34 nM	–	10.7 nM	–	–	–	–	53.4 nM	−87.647%	−72.749%	57.8 nM	–	–
